Laboratory results reported in patent US20140064053A1, “NON-RESONANT TWO-PHOTON ABSORPTION MATERIAL, NON-RESONANT TWO-PHOTON ABSORPTION RECORDING MATERIAL, RECORDING MEDIUM, RECORDING/REPRODUCING METHOD AND NON-RESONANT TWO-PHOTON ABSORPTION COMPOUND” (FUJIFILM Corporation, priority 2011, published 2014).

Experiments:
[1] = Evaluation of solubility of two-photon absorption compound in dichloromethane; format: physicochemical; details: invention compounds compared with Comparative Compound R-1
Experimental: Compounds D-1, D-2, D-6 and D-29 of the present invention and Comparative Compound R-1 for dichloromethane were evaluated for the solubility (room temperature).

[2] = Two-photon absorption cross-sectional area by the Z scanning method; format: physicochemical; details: measurement wavelength 405 nm; chloroform solution, about 1×10^−3 mol/l; 1 GM = 1 × 10^−50 cm^4 s molecule^−1 photon^−1
Experimental: The measurement of the two-photon absorption cross-sectional area of the synthesized compound was performed by the Z scanning method described in MANSOOR SHEIK-BAHAE et al., IEEE. Journal of Quantum Electronics, 1990, 26, 760. The Z scanning method is a method widely used as the measuring method of a non-linear optical constant, where in the vicinity of the focus of converged laser beam, a measurement sample is moved along the beam and the change in the quantity of transmitted light is recorded. Since the power density of incident light changes depending upon the position of the sample, when non-linear absorption is present, the quantity of transmitted light attenuates in the vicinity of the focus. The two-photon absorption cross-sectional area was computed by fitting the change in the quantity of transmitted light to a theoretical curve predicted from the incident light intensity, the light converging spot size, the sample thickness and the sample concentration. As the light source for the measurement of two-photon absorption cross-sectional area, a Ti:sapphire pulsed laser (pulse width: 100 fs, repetition: 80 MHz, average output: 1 W, peak power: 100 kW) obtained by combining a […] and a light parametric amplifier was used. As the sample for the measurement of two-photon absorption cross-sectional area, a solution obtained by dissolving the compound in chloroform in a concentration of about 1×10^−3 mol/l was used.
The two-photon absorption cross-sectional areas of Compounds D-1, D-2, D-6 and D-29 of the present invention and Comparative Compound R-1 [recited as Compound D-1 in Patent Document 5 (JP-A-2010-108588)] are shown in Table 1 below.

| Solubility (in words) [1] | Two-Photon Absorption Cross-Sectional Area [2] | SMILES |
| --- | --- | --- |
| high solubility | 1140 GM | CCCCC(CC)COc1ccc(C(=O)c2ccc(-c3ccc(-c4ccc(-c5ccc(C#N)cc5)c(OC)c4)cc3OC)cc2)cc1 [Compound D-6] |
| low | 1700 GM | N#Cc1ccc(-c2ccc(-c3ccc(-c4ccc(C(=O)c5ccccc5)cc4)cc3)cc2)cc1 [Compound R-1, reference compound] |

Second part, the compound before the results:

| SMILES | Solubility (in words) [1] | Two-Photon Absorption Cross-Sectional Area [2] |
| --- | --- | --- |
| CCCCC(CC)COc1ccc(C(=O)c2ccc(-c3ccc(-c4ccc(-c5ccc(C#N)cc5)cc4)cc3)cc2)cc1 [Compound D-1] | high solubility | 900 GM |
| COCCOCCOCCOCCOCCOc1ccc(C(=O)c2ccc(-c3ccc(-c4ccc(-c5ccc(C#N)cc5)cc4)cc3)cc2)cc1 [Compound D-2] | high solubility | 860 GM |
| COc1cc(-c2ccc(-c3ccc(C(=O)c4ccc(OCCOCCOC(C)=O)c(OCCOCCOC(C)=O)c4)cc3)c(OC)c2)ccc1-c1ccc(C(=O)c2ccc(OCCOCCOC(C)=O)c(OCCOCCOC(C)=O)c2)cc1 [Compound D-29] | high solubility | 2000 GM |
